{"source": "patent US10328062B2", "about": "“Biomarkers and use of MET inhibitor for treatment of cancer” (AMGEN, INC., priority 2014, dated 2019)", "key": {"MKN-45": {"test_system": "MKN-45", "assay": "Flow cytometry cell cycle analysis", "format": "cell-based, Human", "conditions": "dose titration, 24 hours", "method": "(§1) Bromodeoxyuridine (BrdU) labeling reagent was added to cells for the final two hours of compound treatment. Cells were then washed with PBS and treated with trypsin to release from the bottom of the plate. Cells were washed and fixed in 90% methanol at −20° C. overnight. Cells were then washed and treated with 2N HCl and 0.5% triton X-100 to denature the DNA, followed by a wash and staining with anti-BrdU Alexa-647 and anti-Cleaved-Caspase-3 FITC antibodies. Finally cells were subjected to RNase treatment and propidium iodide staining. Cells were then analyzed on an LSRII flow cytometer.\n(§2) The anti-BrdU Alexa-647 antibody was purchased from Invitrogen (Carlsbad, Calif.). The anti-cleaved-caspase-3 FITC antibody was purchased from BD Pharmingen (San Jose, Calif.).\n(§3) Flow cytometry cell cycle analysis of MET amplified gastric cancer cell line MKN-45 is represented in FIG. 6. […] BrdU labeling was performed during the final 2 hours of compound treatment. Cells were then harvested, fixed, permeabilized and stained with BrdU and caspase-3 antibodies, followed by treatment with RNase and propidium iodide. Cells were then analyzed by flow cytometry to document effects on the cell cycle. […] Flow cytometry cell cycle analysis of MET amplified gastric cancer cell line SNU620 are represented in FIG. 6B. SNU 620 cells were treated as described above. […] Subsequent lysates were analyzed by SDS-PAGE and immunoblot using antibodies detecting cleaved PARP, cleaved caspase-3 and β-actin."}, "SNU620": {"test_system": "SNU620", "assay": "Flow cytometry cell cycle analysis", "format": "cell-based, Human", "conditions": "SNU 620; dose titration, 24 hours", "method": "as §1, §2, §3"}, "[1]": {"assay": "Phase 1 Study 20101132 safety", "format": "in vivo", "method": "(§4) Eligible subjects have disease that is refractory or resistant to standard treatments or disease for which no standard therapy exists.\nSafety is assessed according to Common Terminology Criteria for Adverse Events (CTCAE) v4.0 criteria and the DLT (dose limiting toxicity) window is 28 days. Dose escalation is proceeding with a modified 3+3+3 design, which defines the MTD (maximum tolerated dose) to have been exceeded when ≥3 subjects in a cohort experience a DLT.\nEnrollment is proceeding as follows: if no DLT is observed within the first 28 days in the initial 3 to 4 subjects of a cohort, dose escalation to the next higher dose level cohort will occur. If 1 DLT is observed, 3 additional subjects will be enrolled at the same dose level for a total of at least 6 subjects. If no further DLT(s) are observed, escalation to the next higher dose level cohort will occur. If a second DLT is observed, 3 additional subjects will be enrolled at the same dose level for a total of at least 9 subjects. If no further DLTs are observed, dose escalation to the next higher dose level will occur. If ≥3 DLTs are observed in the first 3 to 9 subjects, then enrolment stops at the third DLT observation and enrolment into a cohort at a lower dose level will be considered.\nDose escalation consists of up to 8 cohorts of 3 to 9 evaluable subjects each. Initially, up to 4 subjects may enroll into a cohort. The planned cohort dose levels are as follows: QD cohorts, cohort 1, 25 mg; cohort 2, 50 mg; cohort 3, 100 mg; cohort 3A, 150 mg; cohort 4, 200 mg; cohort 5, 300 mg; cohort 6, 400 mg; and cohort 7, 500 mg; BID cohorts, cohort B1 100 mg, cohort B2 150 mg, cohort B3 200 mg. The MTD is defined as the highest dose level with an observed incidence of DLT in <33% of subjects enrolled in a cohort. At least 6 subjects will be treated at the MTD. An expansion cohort of up to 20 subjects at the MTD (determined in the dose escalation portion) will be considered to obtain further safety, PK, and efficacy data.\n(§5) The 300-mg dose was identified as an MTD for QD dosing schedule and the recommended phase 2 dose. Twice daily dose escalation is currently ongoing and the MTD has not yet been determined as of the data cutoff date. As of the data cutoff date of 23 Jul. 2014, tumor-response data were available from 84 subjects in Study 20101132, including data on 62 subjects with >1 post-screening Response Evaluation Criteria in Solid Tumors (RECIST) tumor measurement by central read (22 subjects had screening data only). […] Of these 7 responders, 6 had gastric, gastroesophageal junction (GEJ) or esophageal adenocarcinoma with evidence of MET amplification identified by fluorescence in-situ hybridization assay performed by an experienced local laboratory per regulatory guideline."}, "advanced solid tumors": {"test_system": "advanced solid tumors", "assay": "Phase 1 Study 20101132 tumor response (RECIST)", "format": "in vivo, human", "parameters": "key to Best Response (RESIST): CR—complete response; PD—progressive disease; PR—partial response", "text": "as §4, §5\nMET amplification in gastric cancer samples was determined as follows, formalin fixed, paraffin embedded (FFPE) sections are pretreated with a paraffin pretreatment reagent to deparafffinize the sections. Sections with sufficient tumor material are hybridized with MET and chromosome 7 probes and analyzed using a fluorescent microscope. Standard FISH scoring practices were used to assess MET amplification. Samples of sufficient quality were reviewed by a pathologist and to assess MET copy number 20 individual, intact nuclei within a sample were identified. Copy number of the MET gene and the chromosome 7 probe were quantitated for each nuclei and an average copy number per nuclei is calculated to yield a score for an individual sample. A ratio of MET to Chromosome 7 (CEN 7) copy number was calculated to yield the ratio score per sample. Initial results were conducted using a laboratory developed test (FISH Ratio 1) and confirmed on a second test at a central lab (FISH Ratio 2) in Table 2."}, "[2]": {"conditions": "of 62 subjects with post-screening RECIST measurement, cutoff 23 Jul. 2014"}}}
{"smiles": "COCCOc1cnc2ccn([C@H](C)c3nnc4c(F)cc(-c5cnn(C)c5)cn34)c(=O)c2c1", "note": "[Compound M, 6-{(1R)-1-[8-fluoro-6-(1-methyl-1H-pyrazol-4-yl)[1,2,4]triazolo[4,3-a]pyridin-3-yl]ethyl}-3-(2-methoxyethoxy)-1,6-naphthyridin-5(6H)-one]", "values": [{"measurement": "S-phase positive cells (BrdU+)", "setting": "MKN-45", "value": "corresponding reduction"}, {"measurement": "percentage of cells in the G1 phase of the cell cycle", "setting": "MKN-45", "value": "dose dependent increase"}, {"measurement": "subG1/Caspase-3+ cells (cell killing)", "setting": "SNU620", "value": "robust induction"}, {"measurement": "MTD and recommended phase 2 dose", "setting": "[1]; QD dosing schedule", "value": 300, "unit": "mg"}, {"measurement": "adverse event: anemia", "setting": "[1]; human, in vivo", "value": 21.1, "unit": "%"}, {"measurement": "adverse event: aspartate aminotransferase (AST) increased", "setting": "[1]; human, in vivo", "value": 10, "unit": "%"}, {"measurement": "adverse event: back pain", "setting": "[1]; human, in vivo", "value": 15.6, "unit": "%"}, {"measurement": "adverse event: constipation", "setting": "[1]; human, in vivo", "value": 23.3, "unit": "%"}, {"measurement": "adverse event: decreased appetite", "setting": "[1]; human, in vivo", "value": 16.7, "unit": "%"}, {"measurement": "adverse event: diarrhea", "setting": "[1]; human, in vivo", "value": 15.6, "unit": "%"}, {"measurement": "adverse event: dizziness", "setting": "[1]; human, in vivo", "value": 10, "unit": "%"}, {"measurement": "adverse event: dry skin", "setting": "[1]; human, in vivo", "value": 12.2, "unit": "%"}, {"measurement": "adverse event: dyspnea", "setting": "[1]; human, in vivo", "value": 15.6, "unit": "%"}, {"measurement": "adverse event: fatigue", "setting": "[1]; human, in vivo", "value": 40, "unit": "%"}, {"measurement": "adverse event: headache", "setting": "[1]; human, in vivo", "value": 64.4, "unit": "%"}, {"measurement": "adverse event: hypoalbuminemia", "setting": "[1]; human, in vivo", "value": 20, "unit": "%"}, {"measurement": "adverse event: myalgia", "setting": "[1]; human, in vivo", "value": 12.2, "unit": "%"}, {"measurement": "adverse event: nausea", "setting": "[1]; human, in vivo", "value": 43.3, "unit": "%"}, {"measurement": "adverse event: peripheral edema", "setting": "[1]; human, in vivo", "value": 18.9, "unit": "%"}, {"measurement": "adverse event: rash", "setting": "[1]; human, in vivo", "value": 11.1, "unit": "%"}, {"measurement": "adverse event: vomiting", "setting": "[1]; human, in vivo", "value": 26.7, "unit": "%"}, {"measurement": "Best Response (RESIST)", "setting": "advanced solid tumors; Subject A, Esophageal, FISH ratio 4.2 local, 8.41 central", "value": "CR"}, {"measurement": "Best Response (RESIST)", "setting": "advanced solid tumors; Subject B, Gastroesophageal, FISH ratio 2.3 local, 3.09 central", "value": "PD"}, {"measurement": "Best Response (RESIST)", "setting": "advanced solid tumors; Subject C, Gastric Adenocarcinoma, FISH ratio 4.1 local", "value": "PR"}, {"measurement": "Best Response (RESIST)", "setting": "advanced solid tumors; Subject D, Esophageal, FISH ratio 4.3 local, 7.31 central", "value": "PR"}, {"measurement": "Best Response (RESIST)", "setting": "advanced solid tumors; Subject E, Gastric Adenocarcinoma, FISH local: suspected", "value": "PR"}, {"measurement": "Best Response (RESIST)", "setting": "advanced solid tumors; Subject F, Gastric Carcinoma, FISH ratio 4.24 local, 6.54 central", "value": "PD"}, {"measurement": "Best Response (RESIST)", "setting": "advanced solid tumors; Subject H, Gastroesophageal Junction, Non-amp, FISH ratio 1.06 central", "value": "PD"}, {"measurement": "Best Response (RESIST)", "setting": "advanced solid tumors; Subject I, Esophageal, Non-amp, FISH ratio 1.00 central", "value": "PD"}, {"measurement": "Best Response (RESIST)", "setting": "advanced solid tumors; Subject J, Gastric Adenocarcinoma, Non-amp, FISH ratio 1.00 central", "value": "PD"}, {"measurement": "subjects with a complete response", "setting": "advanced solid tumors; [2]", "value": 1, "unit": "subject"}, {"measurement": "subjects with a partial response", "setting": "advanced solid tumors; [2]", "value": 6, "unit": "subjects"}, {"measurement": "clinical response, tumor reduction by RECIST v1.1", "setting": "advanced solid tumors; subjects with focal MET amplification, MET FISH ratio ≥2.0", "value": "measurable clinical response"}, {"measurement": "clinical response, tumor reduction by RECIST v1.1", "setting": "advanced solid tumors; subjects without focal MET amplification", "value": "no measurable clinical response"}]}
